Measurements from patent publication US20220332758A1, “PEPTIDE-BASED COMPOSITIONS AND METHODS FOR TREATING ALZHEIMER'S DISEASE” (Board of Regents, The Universityof Texas System, priority 2019, published 2022).
“Also recorded” adds a separate entry of the source.

Legend:
20S proteasome = 20S proteasome (Homo sapiens, UniProt P25787+P60900); test: AFM imaging of gate conformers of 20S proteasomes; design: purified from erythrocytes; purchased Boston Biochem, Inc. or Enzo Life Sciences, Inc; host or cells: human erythrocytes; conditions: 1 μM
Protocol: Atomic Force Microscopy (AFM) Imaging. Single molecules of 20S proteasomes were imaged in tapping (oscillating) mode in liquid, with a scanner E of the Multimode Nanoscope IIIa (Bruker Inc., Santa Barbara, Calif.). The proteasomes were electrostatically attached to a muscovite mica substrate, covered with imaging buffer (5 mM Tris/HCl, pH 7) and scanned using cantilevers with the spring constant of 0.35 N/m from the SNL (Sharp Nitride Lever) probes (Bruker Inc., Santa Barbara, Calif.) tuned to 9-10 kHz. The amplitude set-point in the range of 1.5-2.0V, drive voltage of 300-500 mV and 3.05 Hz scanning rate were used. Scans of 1 μm^2 fields (512×512 pixels) were collected in height-mode. The images of fields typically contained several dozens of top-view (“standing”) 20S proteasome particles. The gate status was deduced from a profile of raw height values of pixels measured by a probe scanning across the single proteasome particles. In short, under the employed scanning conditions the proteasome a face with the central gate area was completely rendered by a six-pixel (11-12 nm) scan-line fragment. Numerical values of the height of particles of raw (after standard flattening) images were collected with a practical vertical resolution reaching 1 Å. […] The “events” of gate opening/closing were analysed for scans of distinct particles as well as multiple scans of the same particles.

[1] = target: T1, proteasome activity in CNS of non-transgenic mice (Mus musculus, UniProt P49722+Q9QUM9); test: Proteasome activity in CNS of mice after IP injection; format: in vivo
T1 construct: from tissue; host or cells: CNS of non-transgenic mice
Protocol: Plate-based proteasome activity assay. Samples were homogenized by pestle in 100 μL chilled proteasome buffer (50 mM Tris, 5 mM MgCl2, 1 mM DTT, pH 7.4, vortexed and then centrifuged at 21,000 g at 4° C. for 15 minutes and supernatant transferred. Protein content was recorded by Bradford assay and samples diluted as appropriate. In a black 96-well plate, 10 μL of samples were added to 80 μL proteasome buffer supplemented with addition of 5 mM ATP for measuring 26S proteasome activity. Finally, 50 μM Suc-LLVY-AMC fluorogenic substrate in 10 μL proteasome buffer was added to each well to measure chymotrypsin-like activity. The plate was incubated at 37° C. in a SpectrumMax M2 plate reader for four hours with fluorescence measured every 10 minutes with 355 nm excitation and reading 460 nm emission. Total proteasome activity per sample was defined as the gradient of the linear trendline over this incubation period.

hAPP(J20) mice = test: Novel object recognition assay in hAPP(J20) mice; format: in vivo, mouse; conditions: 14 days IP injection, 1 mg/kg, listed as Tat-TOD
Protocol: Novel object recognition test. To measure recognition of a previously encountered object, animals are placed in an opacified rat cage with bedding for 10 min. The following (training) day, mice are returned to the chamber, which now contains two identical objects, and allowed to explore the arena for 5 minutes. Percent of time exploring each object is recorded using TopScan. During testing (4 hours after training) one of the objects in the box is replaced with a new object and the side of the replaced object randomized amongst animals. Mice are given 5 mins to explore the two objects, and percent time exploring each object is recorded using TopScan. A discrimination ratio calculated as (tnovel−tfamiliar)/(tnovel+tfamiliar) is used as a measure of retention of the priorly encountered object (positive and negative discrimination ratio values indicate a preference for exploration of the novel and familiar objects, respectively).
The compounds were tested as follows: in neuroblast MC65 cell culture model with overexpressed C99 fragment of amyloid precursor protein (APP) upon tetracycline withdrawal or with external APP added; and in fruit fly (D. melanogaster) model of AD with overexpressed APP and BACE1. The compounds (1 μM) were mixed with food. Flies were trained to recognize “positive” and “negative” odors (olfaction aversion). […]

MC65 cells = test: Cell death in MC65 AD cell model under tetracycline withdrawal (WST-1 viability); format: cell-based, human
Protocol: Cell culture. Cells were cultured in EMEM (SK-N-SH), DMEM (MC65) supplemented with 10% heat-inactivated fetal bovine serum and antibiotics (100 U mL^−1 penicillin, 100 μg mL^−1 streptomycin, and 0.25 μg mL^−1 of amphotericin B; Gibco-Invitrogen). Incubators were maintained at 5% CO2, and 37° C. Medium was replaced every 3-4days. For most experiments, cells were seeded at 100,000 cells mL^−1 in either 6-well or 96 well plates 24 h prior to assay. In most cases, media was replaced with serum free optimem media 24 h prior to assay.
Cell viability. Cell maintained in a clear 96 well plate. On the day of assay, 10 μl of WST-1 reagent (11644807001, Sigma Aldrich) was added to each well and cells incubated in a 37° C. 5% CO2 incubator for 2-4 hours. Absorbance was measured at 450 nm using a gemini series spectrophotometer.
The compounds were tested as follows: in neuroblast MC65 cell culture model with overexpressed C99 fragment of amyloid precursor protein (APP) upon tetracycline withdrawal or with external APP added; and in fruit fly (D. melanogaster) model of AD with overexpressed APP and BACE1. The compounds (1 μM) were mixed with food. Flies were trained to recognize “positive” and “negative” odors (olfaction aversion). The compounds were also treated in hAPP (J20) mice which overexpress a familial variant of APP. The compounds were injected for 14 days (1 mg/kg). […]

[2] = tested on: APP, BACE1 and Aβ42 levels; test: Immunoblot of APP and BACE1 and Aβ42 Elisa in hAPP(J20) mice; format: in vivo, mouse; conditions: 14 days treatment
[3] = target: T2, purified human 26S proteasome (Homo sapiens, UniProt P25787+P60900); test: In-gel overlay activity on non-denaturing gel, 26S proteasome; format: biochemical; conditions: 1 microM, 15 min, 100 microM Suc-LLVY-MCA
T2 construct: purchased Boston Biochemicals (Boston Biochem)
Protocol: Purified human 20S and 26S proteasomes were separated on non-denaturing polyacrylamide gel. The gel was overlayed with reaction buffer containing 100 microM fluorogenic peptide substrate Suc-LLVY-MCA (SEQ ID NO: 14) and 1% of vehicle solvent (DMSO) or the substrate and 1 microM Tat1 8,9 TOD. The gel was photographed after 15 min of incubation and then stained for the total protein content with Coomassie Brilliant Blue, and photographed. […] The protein content was the same for the control and Tat-overlayed sets. The activities of both 26S and 20S are enhanced by Tat1 8,9 TOD. The enhanced activity of 26S was not the result of Tat1 8,9 TOD—induced breaking of the 26S assembly into its components (19S and 20S) and activation of the released 20S catalytic core that still remains in the gel together with the whole 26S assembly. […] Traces of the 20S in both control 26S preparation and preparation pre-incubated with Tat1 8,9 TOD.

N=C(N)NCCCC(NC(=O)CN)C(=O)NC(CCCCN)C(=O)NC(CCCCN)C(=O)NC(CCCNC(=N)N)C(=O)NC(CCCNC(=N)N)C(=O)NC(CCC(N)=O)C(=O)N1Cc2ccccc2C[C@H]1C(=O)N1C(C(=O)NC(CCCNC(N)N)C(=O)N2CCCC2C(=O)NC(CO)C(=O)O)CC2CCCCC21 (stereo partly shown) [(5), GRKKRRQ-TOD-RPS]
intermediate conformers (20S proteasome): 27%
proteasome activity in the central nervous system ([1]; 24 hours after intraperitoneal injection): significantly enhances proteasome activity
blood-brain-barrier penetration ([1]; mice, IP injection): stably penetrates the blood-brain-barrier
learning and memory, novel object recognition (hAPP(J20) mice): efficiently explore their surroundings to recognize novel objects; also recorded: significantly enhances learning and memory
survival of neuroblasts overexpressing APP (MC65 cells; 1 μM): improves survival
cell death under tetracycline withdrawal (MC65 cells; MC65, WST1 viability assay): significantly reduces cell death
APP protein levels [2]: decline in both APP and BACE1 protein levels
protein levels of BACE1 [2]: significantly reduces
protein levels of β-amyloid [2]: significantly reduces
26S activity in gel overlay [3]: enhanced
